In patent US9150899B2, “Identification of compounds modifying a cellular response” (2cureX, priority 2004, dated 2015):
Non-standard residues stand in square brackets, D forms with d. No end group written: not given here.

Test system: GFP expressing U2OS cells and GFP expressing Hek293 cells
Assay: Screening of adhesion D-amino peptide library for low fluorescence/high adherence properties
Type: cell-based, Human
Conditions: re-synthesized adhesion peptides on PEGA beads; six re-synthesized plus four additional peptides compared
Protocol: Approx. 100 adhesion peptide library beads were mixed with 1×10E6 cells (BHK, CHO, U2OS, Hek) in each well of a Falcon 12 well plate using 2 ml growth medium. The adhesion peptide library was prepared according to the general methods for solid phase peptide synthesis outlined above. The library consisted of heptamers of D-amino acids. The peptide library beads were PEGA beads each coupled to a potential adhesion peptide. The cells and beads were mixed gently every 15 min for 2 hrs. Supernatant with non-attached cells were removed and new growth medium added. Cells/beads were incubating for another 16 hrs. (37° C., 5% CO2). Cell adhesive beads were identified using a microscope with 10× objective and positive beads were transferred to a filter paper (to suck off medium). Peptides were identified by amino acid sequencing.
An adhesion D-amino peptide library was synthesized (500.000 members) as described above in Example 2a and screened for low fluorescence/high adherence properties. This was done in 4 steps: • 1) Selection of low fluorescent beads by Fluorescence Activated Bead Sorting (FABS). […]
The 150.000 low fluorescent beads were incubated with GFP expressing U2OS cells followed by FABS sorting for high fluorescence (high cell adhesion). […] 47 beads with high cell adhesion properties were isolated using a fluorescence microscope. • 4) Sequence elucidation and re-synthesis of selected peptides. […]

Q: How did the “overall performance (low fluorescence/high adherence properties)” value turn out when “SEQ ID 35: adhesion peptide arg gln arg ile arg (D-amino acids) ([dR][dQ][dR][dI][dR])” was run?
A: Its value is “best overall performance”.
